Broadly, the IC50 is the concentration at which inhibition is half-maximal. A higher IC50 goes with weaker potency.

Chain of human AD brain tissue homogenate (P05067 whole entry): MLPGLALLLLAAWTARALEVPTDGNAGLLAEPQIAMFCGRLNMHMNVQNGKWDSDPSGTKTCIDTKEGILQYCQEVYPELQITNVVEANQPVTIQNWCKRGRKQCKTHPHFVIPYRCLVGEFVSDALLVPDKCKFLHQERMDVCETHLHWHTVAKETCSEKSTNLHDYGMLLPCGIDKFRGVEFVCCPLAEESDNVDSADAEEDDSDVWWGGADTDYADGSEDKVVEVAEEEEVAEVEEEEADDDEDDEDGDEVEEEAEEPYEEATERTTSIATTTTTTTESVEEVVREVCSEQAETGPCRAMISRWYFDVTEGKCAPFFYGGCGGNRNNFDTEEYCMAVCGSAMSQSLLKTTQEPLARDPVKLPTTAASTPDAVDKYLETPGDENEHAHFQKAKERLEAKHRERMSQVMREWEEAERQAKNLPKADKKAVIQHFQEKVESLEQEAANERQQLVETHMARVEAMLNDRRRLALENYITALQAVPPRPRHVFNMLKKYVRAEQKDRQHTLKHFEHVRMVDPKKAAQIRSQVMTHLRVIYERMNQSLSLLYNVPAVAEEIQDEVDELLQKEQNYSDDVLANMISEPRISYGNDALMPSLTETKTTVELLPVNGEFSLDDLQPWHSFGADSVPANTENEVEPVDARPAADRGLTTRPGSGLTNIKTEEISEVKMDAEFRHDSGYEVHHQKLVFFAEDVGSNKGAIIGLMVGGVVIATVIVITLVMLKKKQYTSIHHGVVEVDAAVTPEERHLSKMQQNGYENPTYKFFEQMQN

The target in the assay is human AD brain tissue homogenate (Homo sapiens, UniProt P05067). As to the kind of experiment: Tissue homogenate binding assay (competition with [3H]-DMAB). Particulars: human AD brain (frontal cortex) homogenate, 1.5 nM [3H]-DMAB radioligand, room temperature, 90 minutes. The procedure:
PET radiotracer candidate compounds were then selected based on their high affinity competition with [^3H]-DMAB in binding to AD brain homogenates. These PET radiotracer candidate compounds were tested to determine if they were effective PgP substrates. Those PET radiotracer candidate compounds with little PgP substrate activity were radiolabeled with [^3H] or [^18F] and tested for binding affinity to human AD brain homogenates as well as binding to human non-AD brain homogenates and in autoradiographic studies using human AD and non-AD brain slices. Candidate radioligands were selected based on their strong binding affinity for human AD brain homogenates, and minimal binding to non-AD control homogenates. A low fraction of non-displaceable binding was also an important criterion. Minimization of white matter binding was an important criterion.
Postmortem frozen human brain samples from donors with clinical diagnosis of Alzheimer's diseases (AD) or normal control subjects (non-AD) were purchased from Analytical Biological Services Inc., at 701-4 Cornell Business Park, Wilmington, Del. 19801. Brain homogenates of frontal cortex were prepared, divided into aliquots and stored at −70° C. prior to use.
[^3H]-DMAB was synthesized at a specific activity of ˜80 Ci/mmol. The final concentration of radioligand for tissue homogenate binding assay was 1.5 nM. Brain homogenates were diluted with phosphate buffered saline (PBS) to 0.4 mg/mL from original 10 mg/mL volume and 200 μl was used in assay for a final concentration of […]. Unlabeled test compounds were dissolved in dimethylsulfoxide (DMSO) at 1 mM. Dilution of test compound to various concentrations was made with PBS containing 2% DMSO. Total binding was defined in the absence of competing compound, and non-displaceable binding was determined in the presence of 1 μM unlabeled self block. Compound dilutions (10×) were added into the assay tube (25 μL each/per tube, separately) containing 200 μL brain homogenate dilution, and the tubes were pre-incubated at room temperature for 10 minutes. Then radioligand dilutions (10×) were added into the assay tube (25 μl each/per tube, separately) to a final volume of 250 μL per tube. Incubation was carried out at room temperature (25° C.) for 90 minutes, and then the assay samples were filtered onto GF/C filters using Skatron 12 well harvester, washing on setting 5-5-5 (˜3×2 ml) ice cold buffer (PBS, pH 7.4). GF/C filter papers for the Skatron harvester were pre-soaked in 0.1% BSA for 1 hour at room temperature before use. Filters were punched into scintillation vials and counted in 2 mL Ultima Gold on Perkin Elmer Tri-Carb 2900TR for 1 minute. The data analysis was done with Prism software. […]
`COc1ccc(-c2noc(-c3cnc(F)c(C)c3)n2)cc1` returned an IC50 of 77 nM. For the compound `COc1ccc(-c2noc(-c3ccc4cc[nH]c4c3)n2)cc1`, the IC50 was determined as 10 nM. `COc1ccc(-c2cc(-c3ccc(N(C)C)cc3)n[nH]2)cc1` returned an IC50 of 10 nM.

Turning to `CN(C)c1ccc(-c2cc(-c3cnc4[nH]ccc4c3)n[nH]2)cc1`, the IC50 amounted to 50 nM.
